Laboratory results from ChEMBL document CHEMBL6109153, “Development of Membrane-Targeting Osthole Derivatives Containing Pyridinium Quaternary Ammonium Moieties with Potent Anti-Methicillin-Resistant Staphylococcus aureus Properties” (J Med Chem, 2025).
The source made the active and inactive calls. No cut-off for these calls is given here.

Assays:
Staphylococcus aureus [1] = experiment: Antibacterial activity against Staphylococcus aureus ATCC 29213 incubated for 16 to 20 hrs by broth microdilution method; type: functional; settings: time 16-20 hrs
Staphylococcus aureus [2] = experiment: Antibacterial activity against methicillin-resistant Staphylococcus aureus M11 incubated for 16 to 20 hrs by broth microdilution method; type: functional; settings: time 16-20 hrs
Staphylococcus aureus [3] = experiment: Antibacterial activity against methicillin-resistant Staphylococcus aureus M13 incubated for 16 to 20 hrs by broth microdilution method; type: functional; settings: time 16-20 hrs
Staphylococcus aureus [4] = experiment: Antibacterial activity against methicillin-resistant Staphylococcus aureus M14 incubated for 16 to 20 hrs by broth microdilution method; type: functional; settings: time 16-20 hrs
Staphylococcus aureus [5] = experiment: Antibacterial activity against methicillin-resistant Staphylococcus aureus M17 incubated for 16 to 20 hrs by broth microdilution method; type: functional; settings: time 16-20 hrs
Staphylococcus aureus [6] = experiment: Antibacterial activity against methicillin-resistant Staphylococcus aureus M20 incubated for 16 to 20 hrs by broth microdilution method; type: functional; settings: time 16-20 hrs
Staphylococcus aureus [7] = experiment: Antibacterial activity against methicillin-resistant Staphylococcus aureus M21 incubated for 16 to 20 hrs by broth microdilution method; type: functional; settings: time 16-20 hrs
Staphylococcus aureus [8] = experiment: Antibacterial activity against methicillin-resistant Staphylococcus aureus M23 incubated for 16 to 20 hrs by broth microdilution method; type: functional; settings: time 16-20 hrs
Escherichia coli = experiment: Antibacterial activity against Escherichia coli ATCC 25922 incubated for 16 to 20 hrs by broth microdilution method; type: functional; settings: time 16-20 hrs
[9] = Hemolytic activity against sheep erythrocytes; type: toxicity, cell-based, Ovis aries, Erythrocyte
Staphylococcus aureus [10] = experiment: Induction of bacterial eradication in methicillin-resistant Staphylococcus aureus M11 at 8 times MIC incubated for 4 hrs by time-kill assay; type: functional, organism-based
Staphylococcus aureus [11] = experiment: Induction of resistance development in Staphylococcus aureus ATCC 29213 at 0.5 times MIC measured after 20 passages by broth microdilution method; type: functional, organism-based
[12] = Toxicity in KM mouse assessed as animal death at 40 mg/kg, sc; type: organism-based; settings: in vivo
[13] = Toxicity in BALB/c mouse assessed as maximum safe dose administered intraperitoneally measured for 7 days; settings: in vivo, route ip, time 7 day
Staphylococcus aureus [14] = experiment: Antibacterial activity against methicillin-resistant Staphylococcus aureus M11 infected in BALB/c mouse model of Sepsis assessed as reduction in abscess size on back at 4 mg/kg measured after 24 hrs; type: functional, organism-based
Staphylococcus aureus [15] = experiment: Antibacterial activity against methicillin-resistant Staphylococcus aureus M11 infected in BALB/c mouse model of Sepsis assessed as reduction in redness in inner epidermal abscesses at 4 mg/kg measured after 24 hrs; type: functional, organism-based
Staphylococcus aureus [16] = experiment: Antibacterial activity against methicillin-resistant Staphylococcus aureus M11 infected in BALB/c mouse model of Sepsis assessed as restoration of smoothness in outer skin at 8 mg/kg measured after 24 hrs; type: functional, organism-based
Staphylococcus aureus [17] = experiment: Antibacterial activity against methicillin-resistant Staphylococcus aureus M11 infected in BALB/c mouse model of Sepsis assessed as smooth in inner epidermis at 8 mg/kg measured after 24 hrs; type: functional, organism-based
Staphylococcus aureus [18] = experiment: Antibacterial activity against methicillin-resistant Staphylococcus aureus M11 infected in BALB/c mouse model of Sepsis assessed as reduction in inflammatory cell infiltration in skin tissues at 4 to 8 mg/kg measured after 24 hrs by H and E staining based analysis; type: functional, organism-based; settings: dose 4-8 mg/kg
Staphylococcus aureus [19] = experiment: Antibacterial activity against methicillin-resistant Staphylococcus aureus M11 infected in BALB/c mouse model of Sepsis assessed as reduction in bacterial count in skin tissues at 4 mg/kg measured after 24 hrs relative to control; type: functional; set-up: scale not given: the % may be the effect or the level left
Staphylococcus aureus [20] = experiment: Antibacterial activity against methicillin-resistant Staphylococcus aureus M11 infected in BALB/c mouse model of Sepsis assessed as reduction in bacterial count in skin tissues at 8 mg/kg measured after 24 hrs relative to control; type: functional; set-up: scale not given: the % may be the effect or the level left
Staphylococcus aureus [21] = experiment: Antibacterial activity against methicillin-resistant Staphylococcus aureus M11 infected in BALB/c mouse model of Sepsis assessed as reduction in bacterial load in skin tissues at 4 mg/kg measured after 24 hrs; type: functional
Staphylococcus aureus [22] = experiment: Antibacterial activity against methicillin-resistant Staphylococcus aureus M11 infected in BALB/c mouse model of Sepsis measured after 24 hrs; type: functional, organism-based; settings: dose 4-8 mg/kg
[23] = Toxicity in BALB/c mouse model of Sepsis infected with methicillin-resistant Staphylococcus aureus M11 assessed as pathological change in heart at 4 to 8 mg/kg measured after 24 hrs by H and E staining based analysis; type: organism-based; settings: in vivo, dose 4-8 mg/kg
[24] = Toxicity in BALB/c mouse model of Sepsis infected with methicillin-resistant Staphylococcus aureus M11 assessed as pathological change in liver at 4 to 8 mg/kg measured after 24 hrs by H and E staining based analysis; type: organism-based; settings: in vivo, dose 4-8 mg/kg
[25] = Toxicity in BALB/c mouse model of Sepsis infected with methicillin-resistant Staphylococcus aureus M11 assessed as pathological change in spleen at 4 to 8 mg/kg measured after 24 hrs by H and E staining based analysis; type: organism-based; settings: in vivo, dose 4-8 mg/kg
[26] = Toxicity in BALB/c mouse model of Sepsis infected with methicillin-resistant Staphylococcus aureus M11 assessed as lesions in heart at 4 to 8 mg/kg measured after 24 hrs by H and E staining based analysis; type: organism-based; settings: in vivo, dose 4-8 mg/kg
Staphylococcus aureus [27] = experiment: Disruption of cell membrane in methicillin-resistant Staphylococcus aureus M11 assessed as roughness in cell membrane at 4 ug/ml incubated for 4 hrs by SEM analysis; type: functional, organism-based; settings: dose 4.0 µg/ml
Staphylococcus aureus [28] = experiment: Disruption of cell membrane in methicillin-resistant Staphylococcus aureus M11 assessed as wrinkling in cell membrane at 4 ug/ml incubated for 4 hrs by SEM analysis; type: functional, organism-based; settings: dose 4.0 µg/ml
Staphylococcus aureus [29] = experiment: Disruption of cell membrane in methicillin-resistant Staphylococcus aureus M11 assessed as cell membrane rupture at 4 ug/ml incubated for 4 hrs by SEM analysis; type: functional, organism-based; settings: dose 4.0 µg/ml
Staphylococcus aureus [30] = experiment: Disruption of cell membrane in methicillin-resistant Staphylococcus aureus M11 assessed as increase in red fluorescence in nuclei at 4 ug/ml incubated for 4 hrs by DAPI/PI staining based analysis; type: functional, organism-based; settings: dose 4.0 µg/ml
Staphylococcus aureus [31] = experiment: Disruption of cell membrane in methicillin-resistant Staphylococcus aureus M11 assessed as fold increase in DNA leakage at 4 ug/ml incubated for 4 hrs by micro-spectrophotometric analysis relative to control; type: functional; settings: dose 4 µg/ml
Staphylococcus aureus [32] = experiment: Disruption of cell membrane in methicillin-resistant Staphylococcus aureus M11 assessed as fold increase in protein leakage at 4 ug/ml incubated for 4 hrs by micro-spectrophotometric analysis relative to control; type: functional; settings: dose 4 µg/ml
Staphylococcus aureus [33] = experiment: Induction of ROS production in methicillin-resistant Staphylococcus aureus M11 incubated for 1 hr by DCFH-DA probe based analysis; type: functional, organism-based; settings: dose <= 32.0 µg/ml
Staphylococcus aureus [34] = experiment: Induction of ROS production in methicillin-resistant Staphylococcus aureus M11 assessed as fold increase at 32 ug/ml incubated for 1 hr by DCFH-DA probe based analysis relative to control; type: functional; settings: dose 32 µg/ml
Staphylococcus aureus [35] = experiment: Antibacterial activity against methicillin-resistant Staphylococcus aureus M11 up to 128 ug/ml in presence of peptidoglycan incubated for 16 to 18 hrs; type: functional, organism-based; settings: dose <= 128.0 µg/ml, time 16-18 hrs
Staphylococcus aureus [36] = experiment: Antibacterial activity against methicillin-resistant Staphylococcus aureus M11 up to 128 ug/ml in presence of 32 ug/ml peptidoglycan incubated for 16 to 18 hrs; type: functional; settings: dose <= 128 µg/ml, time 16-18 hrs
Staphylococcus aureus [37] = experiment: Antibacterial activity against methicillin-resistant Staphylococcus aureus M11 up to 128 ug/ml in presence of 128 ug/ml peptidoglycan incubated for 16 to 18 hrs; type: functional; settings: dose <= 128 µg/ml, time 16-18 hrs

Question: With CC(C)=CCc1c(OCCCCSc2cc[n+](CC(=O)N(CC(C)C)CC(C)C)cc2)ccc2ccc(=O)oc12.[Br-] as the molecule, how does the MIC (Staphylococcus aureus [1]) read?
Answer: The MIC was 0.5 µg/mL.

Question: And the MIC (Staphylococcus aureus [2])?
Answer: The MIC was 0.5 µg/mL.

Question: What about the MIC (Staphylococcus aureus [3]) of the same molecule?
Answer: Its MIC is 1 µg/mL.

Question: What about the MIC (Staphylococcus aureus [4]) of the same molecule?
Answer: Its MIC is 0.5 µg/mL.

Question: What about the MIC (Staphylococcus aureus [5]) of the same molecule?
Answer: The MIC was 0.5 µg/mL.

Question: What about the MIC (Staphylococcus aureus [6]) of the same molecule?
Answer: The MIC was 0.5 µg/mL.

Question: And the MIC (Staphylococcus aureus [7])?
Answer: The MIC was 0.5 µg/mL.

Question: And the MIC (Staphylococcus aureus [8])?
Answer: The MIC was 0.5 µg/mL.

Question: What about the MIC (Escherichia coli) of the same molecule?
Answer: The MIC was > 128 µg/mL.

Question: And the HC50 [9]?
Answer: The HC50 was > 160 µg/mL.

Question: And the Activity (Staphylococcus aureus [10])?
Answer: Its Activity is “Active”.

Question: What about the Activity (Staphylococcus aureus [11]) of the same molecule?
Answer: The Activity was “inactive”.

Question: What about the Activity [12] of the same molecule?
Answer: The Activity was “Non-toxic”.

Question: What about the MTD at 168 h [13] of the same molecule?
Answer: Its MTD at 168 h is 30 mg/kg.

Question: What about the Activity (Staphylococcus aureus [14]) of the same molecule?
Answer: The Activity was “Active”.

Question: And the Activity (Staphylococcus aureus [15])?
Answer: The Activity was “Active”.

Question: And the Activity (Staphylococcus aureus [16])?
Answer: Its Activity is “Active”.

Question: And the Activity (Staphylococcus aureus [17])?
Answer: The Activity was “Active”.

Question: And the Activity (Staphylococcus aureus [18])?
Answer: The Activity was “Active”.

Question: What about the Activity (Staphylococcus aureus [19]) of the same molecule?
Answer: Its Activity is 98.886%.

Question: What about the Activity (Staphylococcus aureus [20]) of the same molecule?
Answer: Its Activity is 99.994%.

Question: What about the Activity (Staphylococcus aureus [21]) of the same molecule?
Answer: The Activity was 1.948 log10CFU/g.

Question: And the Activity (Staphylococcus aureus [22])?
Answer: The Activity was “Dose-dependent-effect”.

Question: What about the Activity [23] of the same molecule?
Answer: Its Activity is “Non-toxic”.

Question: And the Activity [24]?
Answer: Its Activity is “Non-toxic”.

Question: And the Activity [25]?
Answer: The Activity was “Non-toxic”.

Question: And the Activity [26]?
Answer: Its Activity is “Non-toxic”.

Question: And the Activity (Staphylococcus aureus [27])?
Answer: Its Activity is “Active”.

Question: What about the Activity (Staphylococcus aureus [28]) of the same molecule?
Answer: Its Activity is “Active”.

Question: What about the Activity (Staphylococcus aureus [29]) of the same molecule?
Answer: The Activity was “Active”.

Question: What about the Activity (Staphylococcus aureus [30]) of the same molecule?
Answer: Its Activity is “Active”.

Question: What about the “fold change (FC)” value (Staphylococcus aureus [31]) of the same molecule?
Answer: The value was ~2.

Question: What about the “fold change (FC)” value (Staphylococcus aureus [32]) of the same molecule?
Answer: The value was ~4.

Question: And the Activity (Staphylococcus aureus [33])?
Answer: Its Activity is “Dose-dependent-effect”.

Question: And the “fold change (FC)” value (Staphylococcus aureus [34])?
Answer: The value was 2.

Question: And the Activity (Staphylococcus aureus [35])?
Answer: Its Activity is “Active; Compound Showed Only Minor Or No Change In Mic”.

Question: What about the MIC (Staphylococcus aureus [36]) of the same molecule?
Answer: Its MIC is 1 µg/mL.

Question: And the MIC (Staphylococcus aureus [37])?
Answer: The MIC was 16 µg/mL.

Question: Which results are given for CCCCCNC(=O)C[n+]1ccc(SCCCCCOc2ccc3ccc(=O)oc3c2CC=C(C)C)cc1.[Br-]?
Answer: MIC (Staphylococcus aureus [1]): 1 µg/mL; MIC (Staphylococcus aureus [2]): 0.5 µg/mL; MIC (Staphylococcus aureus [3]): 1 µg/mL; MIC (Staphylococcus aureus [4]): 0.5 µg/mL; MIC (Staphylococcus aureus [5]): 0.5 µg/mL; MIC (Staphylococcus aureus [6]): 0.5 µg/mL; MIC (Staphylococcus aureus [7]): 0.5 µg/mL; MIC (Staphylococcus aureus [8]): 0.5 µg/mL; MIC (Escherichia coli): > 128 µg/mL; HC50 [9]: > 160 µg/mL; Activity (Staphylococcus aureus [10]): Active; Activity (Staphylococcus aureus [11]): inactive; Activity [12]: Non-toxic; MTD at 168 h [13]: 10 mg/kg; Activity (Staphylococcus aureus [14]): Active; Activity (Staphylococcus aureus [15]): Active; Activity (Staphylococcus aureus [16]): Active; Activity (Staphylococcus aureus [17]): Active; Activity (Staphylococcus aureus [18]): Active; Activity (Staphylococcus aureus [19]): 98.702%; Activity (Staphylococcus aureus [20]): 99.985%; Activity (Staphylococcus aureus [21]): 1.882 log10CFU/g; Activity (Staphylococcus aureus [22]): Dose-dependent-effect; Activity [23]: Non-toxic; Activity [24]: Non-toxic; Activity [25]: Non-toxic; Activity [26]: Non-toxic; Activity (Staphylococcus aureus [27]): Active; Activity (Staphylococcus aureus [28]): Active; Activity (Staphylococcus aureus [29]): Active; Activity (Staphylococcus aureus [30]): Active; fold change (FC) (Staphylococcus aureus [31]): ~2; fold change (FC) (Staphylococcus aureus [32]): ~4; Activity (Staphylococcus aureus [33]): Dose-dependent-effect; fold change (FC) (Staphylococcus aureus [34]): 1.8; Activity (Staphylococcus aureus [35]): Active; Compound Showed Only Minor Or No Change In Mic; MIC (Staphylococcus aureus [36]): 1 µg/mL; MIC (Staphylococcus aureus [37]): 16 µg/mL
